# Reference: patent publication US20100009956A1, “NOVEL SUBSTITUTED PYRIMIDINES AS CYSTEINE PROTEASE INHIBITORS” (Glaxo Group Limited , a corporation, priority 2006, published 2010)
# pIC50: −log10 of the molar value. Counter-ions that a name gives are not always drawn. Like-named read-outs stand apart in the source and are kept apart here.
# What was measured:
# [1] = tested on: Plasmodium falciparum parasite; assay: Whole cell assay (assay 2); assay type: cell-based
# Text: Assay 2) Determination of Whole Cell Activity Against the Plasmodium falciparum Parasite
# Compounds can be evaluated for whole cell actvity against the Plasmodium falciparum parasite according to the procedure described in Sijwali S. and Rosenthal P. J., (2004) Proceedings of the National Academy of Sciences of the United States of America (PNAS) 101 (13), 4384-4389 (see in particular “Measurement of Parasite Growth rates and Inhibitor Sensitivity” on page 4385); IC50 values can be calculated as described in Singh A. and Rosenthal P. J., (2001) Antimicrobial Agents and Chemotherapy 45(3), 949-951 (see in particular page 950, first column); synchronised parasites can be prepared as described in Divo A. A. et al., (1985) Protozool. 32, 59-64.
# [2] = target: T1, Cathepsin K (Homo sapiens, UniProt P43235); assay: Cathepsin K enzymatic assay (assay 1); assay type: biochemical; conditions: human recombinant enzyme, Z-FR-AFC substrate, pH 5.5
# T1 sequence (P43235 115-329): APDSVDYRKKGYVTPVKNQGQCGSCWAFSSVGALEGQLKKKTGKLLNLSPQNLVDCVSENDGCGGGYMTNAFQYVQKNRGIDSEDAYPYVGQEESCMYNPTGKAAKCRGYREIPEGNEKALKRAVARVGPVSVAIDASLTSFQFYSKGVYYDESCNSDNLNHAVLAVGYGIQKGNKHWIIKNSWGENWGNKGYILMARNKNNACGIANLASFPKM
# How it was run: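 Human recombinant cathepsin K was assayed with the fluorogenic substrate Z-FR-AFC at 20 uM in 100 mM sodium acetate, pH 5.5, with 5 mM L-cysteine, 1 mM CHAPS, 5 mM EDTA and 1% DMSO. Enzyme plus substrate was added to wells holding inhibitor in DMSO. After 60 minutes at ambient temperature, 16.6 uM E-64 quenched the reaction. AFC fluorescence (excitation 405 nm, emission 530 nm) was read, and IC50 came from a four-parameter dose-response fit.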
# [3] = target: Cathepsin S (Homo sapiens, UniProt P25774); assay: Cathepsin S enzymatic assay (assay 1); assay type: biochemical; conditions: human recombinant enzyme, KQKLR-AMC substrate, pH 6.5
# Description: Assay 1) Determination of Falcipain-2, Falcipain-3, Vivapain-2, Cathepsin K Cathepsin S, Cathepsin L, and Cathepsin B Proteolytic Catalytic Activity
# Assays for Falcipain-2, Falcipain-3, and Vivapain-2 are carried out with parasitic recombinant enzymes. Cathepsins K, S, L, and B are carried out with human recombinant enzymes. Standard assay conditions for the determination of kinetic constants used a fluorogenic peptide substrate, typically H-D-VLR-AFC (Falcipain-2, Falcipain-3, Vivapain-2), Z-FR-AFC (Cathepsin K, L, B), or KQKLR-AMC (Cathepsin S) and are determined in 100 mM sodium acetate, pH 5.5, containing 10 mM DTT and 0.5 mM CHAPS (Falcipain-2, Falcipain-3, Vivapain-2), and 100 mM sodium acetate, pH 5.5, containing 5 mM L-cysteine, 1 mM CHAPS and 5 mM EDTA (Cathepsin K, L, B), or 50 mM MES, pH 6.5, containing 0.5 mM CHAPS, 10 mM L-CYS, 5 mM EDTA (Cathepsin S). Stock substrate solutions are prepared at 20 mM in DMSO. The activity assays contained 30 uM substrate (Falcipain-2, Falcipain-3, Vivapain-2), 20 uM substrate (Cathepsin K), 25 uM substrate (Cathepsin B), 5 uM substrate (Cathepsin L), and 30 uM substrate (Cathepsin S). All assays contained 1% DMSO. […] All assays are conducted at ambient temperature as end point assays being quenched after 60 minutes with the exception of Cathepsin S at 90 minutes, with 16.6 uM E-64 in 1% DMSO. Product formation (AFC or AMC) is determined from fluorescence (excitation at 405 nm; emission at 530 nm, AFC, or excitation at 360 nm; emission at 460 nm, AMC) monitored with a LJL Aquest (Molecular Devices) fluorescent plate reader. In the case of kinetic reads (used in mechanism of action studies), the reaction is not quenched but is read in the plate reader every 3 minutes for approximately 90 minutes. In addition, the mechanism of action studies for Falcipain-2 utilize Z-LR-AMC as the substrate. Product formation is determined from the fluorescence of AMC, measured with a LJL Acquest (Molecular Devices) fluorescent plate reader (excitation at 360 nm; emission at 460 nm).
# Potential inhibitors are evaluated using the quenched read (endpoint) method. Assays are carried out in the presence of variable concentrations of test compound. Reactions are initiated by addition of enzyme and substrate to wells containing inhibitor stamped in 100% DMSO. For endpoint assays, the reaction is quenched with the addition of E64. Dose response data is fit to an IC50 curve with preset fitting tools according to equation 1:
# y=a+(b−a)/(1+(10^x/10^c)^d) (1)
# where y is the response at a particular inhibitor concentration x, a is the minimum response value, b is the maximum response value, c is the IC50, and d is the slope of the IC50 curve. Assuming the compound is a competitive inhibitor, the apparent KI can be calculated from IC50, as shown in equation 2: […]
# [4] = target: Falcipain-2 (Plasmodium falciparum, UniProt Q8I6U4); assay: Falcipain-2 enzymatic assay (assay 1); assay type: biochemical
# How it was run: (§1)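 Recombinant parasite enzyme with 30 uM H-D-VLR-AFC in 100 mM sodium acetate pH 5.5, 10 mM DTT, 0.5 mM CHAPS, 1% DMSO, ambient temperature. Endpoint after 60 minutes, quenched with 16.6 uM E-64; AFC fluorescence (ex 405/em 530). IC50 from four-parameter fit, apparent KI assuming competitive inhibition.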
# [5] = target: Falcipain-3 (Plasmodium falciparum, UniProt Q8IIL0); assay: Falcipain-3 enzymatic assay (assay 1); assay type: biochemical
# How it was run: as §1
# [6] = parasitic recombinant enzyme, H-D-VLR-AFC substrate, pH 5.5, endpoint read, read-out: Falcipain-2 IC50
# [7] = parasitic recombinant enzyme, H-D-VLR-AFC substrate, pH 5.5, endpoint read, read-out: Falcipain-3 IC50
# Sequence of Cathepsin S (P25774 115-331): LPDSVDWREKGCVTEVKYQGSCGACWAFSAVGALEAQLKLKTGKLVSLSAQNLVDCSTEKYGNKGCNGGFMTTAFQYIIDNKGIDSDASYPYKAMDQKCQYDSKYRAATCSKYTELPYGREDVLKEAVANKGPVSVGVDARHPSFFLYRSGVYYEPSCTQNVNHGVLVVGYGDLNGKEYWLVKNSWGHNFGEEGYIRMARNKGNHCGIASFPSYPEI
# Sequence of Falcipain-2 (Q8I6U4 244-484): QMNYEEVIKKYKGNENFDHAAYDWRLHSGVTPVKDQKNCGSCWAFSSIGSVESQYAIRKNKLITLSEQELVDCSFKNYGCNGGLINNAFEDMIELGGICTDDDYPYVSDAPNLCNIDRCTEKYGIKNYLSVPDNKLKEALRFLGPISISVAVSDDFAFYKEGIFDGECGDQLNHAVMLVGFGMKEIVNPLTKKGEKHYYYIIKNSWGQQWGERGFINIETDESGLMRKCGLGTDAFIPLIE
# Sequence of Falcipain-3 (Q8IIL0 243-492): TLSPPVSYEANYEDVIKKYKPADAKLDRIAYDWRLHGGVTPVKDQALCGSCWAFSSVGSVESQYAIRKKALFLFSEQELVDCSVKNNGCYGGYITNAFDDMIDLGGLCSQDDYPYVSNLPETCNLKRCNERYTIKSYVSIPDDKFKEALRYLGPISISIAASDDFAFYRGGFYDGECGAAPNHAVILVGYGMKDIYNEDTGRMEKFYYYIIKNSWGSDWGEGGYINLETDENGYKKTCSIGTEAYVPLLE
Compound,pIC50 ([1]; hydrochloride),pIC50 [2],pIC50 [3],pIC50 [4],pIC50 [5],pIC50 ([1]; Plasmodium falciparum),"pIC50 [4, 6]","pIC50 [5, 7]",pIC50 [1]
"CN1CCN(Cc2ccc(C(=O)NN(c3nc(C#N)ncc3Br)C3CCCC3)cc2)CC1 [Example 1B, N′-(5-bromo-2-cyano-4-pyrimidinyl)-N′-cyclopentyl-4-[(4-methyl-1-piperazinyl)methyl]benzohydrazide hydrochloride]",7.82 to 8.60,> 8.82,> 6.70,–,–,–,–,–,–
"CN1CCN(C2CCN(Cc3ccc(C(=O)NN(c4nc(C#N)ncc4Cl)C4CCOCC4)cc3)CC2)CC1 [Example 34, N′-(5-Chloro-2-cyano-4-pyrimidinyl)-4-{[4-(4-methyl-1-piperazinyl)-1-piperidinyl]methyl}-N′-(tetrahydro-2H-pyran-4-yl)benzohydrazide trifluoroacetate]",–,> 7.77,–,8.60 to 9.00,7.82 to 8.60,6.82 to 7.82,–,–,–
"CN1CCN(Cc2ccc(-c3cncc(C(=O)NN(c4nc(C#N)ncc4Br)C4CCCC4)c3)cc2)CC1 [Example 45, N′-(5-bromo-2-cyano-4-pyrimidinyl)-N′-cyclopentyl-5-{4-[(4-methyl-1-piperazinyl)methyl]phenyl}-3-pyridinecarbohydrazide trifluoroacetate]",–,> 8.82,> 6.70,> 9.00,7.82 to 8.60,7.82 to 8.60,–,–,–
"CC(C)N(CCN(C(=O)OC(C)(C)C)C(C)C)Cc1ccc(C(=O)NN(c2nc(C#N)ncc2Cl)C2CCCC2)cc1 [Example 85, 1,1-dimethylethyl{2-[[(4-{[2-(5-chloro-2-cyano-4-pyrimidinyl)-2-cyclopentylhydrazino]carbonyl}phenyl)methyl](1-methylethyl)amino]ethyl}(1-methylethyl)carbamate trifluoroacetate]",–,–,> 6.70,> 9.00,7.82 to 8.60,6.60 to 6.82,–,–,–
"CN(CCN(C)C(=O)OC(C)(C)C)Cc1ccc(C(=O)NN(c2nc(C#N)ncc2Cl)C2CCCC2)cc1 [Example 84, 1,1-dimethylethyl{2-[[(4-{[2-(5-chloro-2-cyano-4-pyrimidinyl)-2-cyclopentylhydrazino]carbonyl}phenyl)methyl](methyl)amino]ethyl}methylcarbamate trifluoroacetate]",–,–,> 6.00,> 9.00,7.82 to 8.60,6.60 to 6.82,–,–,–
N′-(1-acetyl-4-piperidinyl)-N′-(5-bromo-2-cyano-4-pyrimidinyl)-4-[(4-methyl-1-piperazinyl)methyl]benzohydrazide trifluoroacetate [Example 37],–,–,–,–,–,–,> 9.00,6.82 to 7.82,6.82 to 7.82
"CCCN1CCN(c2ccc(C(=O)NN(c3nc(C#N)ncc3Br)C3CCCCC3)cc2)CC1 [Example 80, N′-(5-bromo-2-cyano-4-pyrimidinyl)-N′-cyclohexyl-4-(4-propyl-1-piperazinyl)benzohydrazide trifluoroacetate]",–,> 8.82,> 6.70,> 9.00,6.82 to 7.82,6.60 to 6.82,–,–,–
"CN1CCN(Cc2ccc(C(=O)NN(c3nc(C#N)ncc3Br)C3CCCC3)cc2)CC1 [Example 1A, N′-(5-bromo-2-cyano-4-pyrimidinyl)-N′-cyclopentyl-4-[(4-methyl-1-piperazinyl)methyl]benzohydrazide]",–,–,> 6.00,–,–,–,–,–,7.82 to 8.60
N′-(5-chloro-2-cyano-4-pyrimidinyl)-N′-cyclopentyl-4-{[methyl(3-methylbutyl)amino]methyl}benzohydrazide trifluoroacetate [Example 63],–,–,–,–,–,–,> 9.00,7.82 to 8.60,7.82 to 8.60
"CN1CCN(C2CCN(Cc3ccc(C(=O)NN(c4nc(C#N)ncc4Br)C4CCOCC4)cc3)CC2)CC1 [Example 29, N′-(5—Bromo-2-cyano-4-pyrimidinyl)-4-{[4-(4-methyl-1-piperazinyl)-1-piperidinyl]methyl}-N′-(tetrahydro-2H-pyran-4-yl)benzohydrazide trifluoroacetate]",–,> 7.77,–,> 9.00,–,7.82 to 8.60,–,7.82 to 8.60,–
"CC(=O)N1CCC(N(NC(=O)OC(C)(C)C)c2nc(C#N)ncc2Br)CC1 [Example 79, 1,1-dimethylethyl 2-(1-acetyl-4-piperidinyl)-2-(5-bromo-2-cyano-4-pyrimidinyl)hydrazinecarboxylate]",–,–,> 6.70,> 9.00,–,6.82 to 7.82,–,6.82 to 7.82,–
"CN1CCN(Cc2ccc(C(=O)NN(c3nc(C#N)ncc3Br)C3CCCCC3)cc2)CC1 [Example 16, N′-(5-bromo-2-cyano-4-pyrimidinyl)-N′-cyclohexyl-4-[(4-methyl-1-piperazinyl)methyl]benzohydrazide trifluoroacetate]",–,> 8.82,> 6.00,> 9.00,7.82 to 8.60,6.82 to 7.82,–,–,–
"CN1CCN(c2ncc(C(=O)NN(c3nc(C#N)ncc3Cl)C3CCCC3)s2)CC1 [Example 77, N′-(5-chloro-2-cyano-4-pyrimidinyl)-N′-cyclopentyl-2-(4-methyl-1-piperazinyl)-1,3-thiazole-5-carbohydrazide trifluoroacetate]",–,–,–,> 9.00,6.82 to 7.82,6.82 to 7.82,–,–,–
"CN(Cc1ccc(C(=O)NN(c2nc(C#N)ncc2Cl)C2CCCC2)cc1)CC1OCCO1 [Example 83, N′-(5-chloro-2-cyano-4-pyrimidinyl)-N′-cyclopentyl-4-{[(1,3-dioxolan-2-ylmethyl)(methyl)amino]methyl}benzohydrazide trifluoroacetate]",–,–,–,> 9.00,8.60 to 9.00,6.60 to 6.82,–,–,–
